Laboratory results: patent US12037324B2, “Biarylmethyl heterocycles” (Université de Montréal, priority 2016, dated 2024)

Legend:
[1] = target: T1, hAT1R (Homo sapiens, UniProt P30556); experiment: BRET β-arrestin2 biosensor assay, higher receptor expression (hAT1R 5 ng/well), HEK293 cells; type: cell-based; conditions: for EC50: High AT1R Expression
T1 sequence (P30556 1-359): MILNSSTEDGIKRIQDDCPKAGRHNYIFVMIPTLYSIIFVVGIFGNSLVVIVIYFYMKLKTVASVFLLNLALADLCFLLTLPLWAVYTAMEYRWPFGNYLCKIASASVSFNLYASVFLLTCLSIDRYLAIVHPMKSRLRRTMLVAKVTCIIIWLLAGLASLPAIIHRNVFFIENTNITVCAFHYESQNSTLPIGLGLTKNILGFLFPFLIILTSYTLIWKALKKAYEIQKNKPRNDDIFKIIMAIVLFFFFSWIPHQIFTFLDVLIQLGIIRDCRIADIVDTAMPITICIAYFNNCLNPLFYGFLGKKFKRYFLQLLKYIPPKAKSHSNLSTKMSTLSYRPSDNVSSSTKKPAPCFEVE

[2] = target: T1, hAT1R; experiment: cell-based; conditions: agonist mode; for EC50: read-out: BRET P63 EC50
[3] = target: T2, AGTR1 (Homo sapiens, UniProt P30556); experiment: DiscoveRx IP1 accumulation assay (HTRF), agonist mode, Pathunter CHO-K1 AGTR1 β-arrestin cell line; type: cell-based; conditions: for EC50: read-out: IP-1 EC50
T2 construct: host or cells: Pathunter CHO-K1 AGTR1 β-arrestin cell line (CHO-K1)
T2 sequence (P30556 1-359): T1 sequence (P30556 1-359)
Summary of the method: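 Agonist mode in CHO-K1 AGTR1 β-arrestin cells plated 14-16 h before; compounds at varying concentrations for 90 min at 37° C, IP1 accumulation read by HTRF (D2-conjugate and anti-IP1 cryptate, 20 min room temperature). EC50 from 4-parameter logistic fit; activity given as percentage of maximal AII effect.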

[4] = target: T2, AGTR1; experiment: DiscoveRx β-arrestin2 recruitment assay (enzyme complementation, Pathunter CHO-K1 AGTR1 β-arrestin cell line); type: cell-based; conditions: DiscoveRx β-arrestin2 recruitment; for DiscoveRx β-arrestin2 Ymax (%): maximal response
Summary of the method: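 CHO-K1 cells expressing AGTR1 with β-arrestin2 enzyme-complementation reporter, plated 14-16 h ahead in 1% serum medium, then exposed to compounds for 90 min at 37° C. Chemiluminescence read after 1 h detection. EC50 (agonist) or IC50 (antagonist) from 4-parameter logistic fit; activity as percentage of All maximal effect.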

SMILES: CCc1nc2c(C)cc(C)nc2n1Cc1ccc(-c2cc(-c3ccc(C(=O)N(C)C)cc3)ccc2C(=O)O)cc1 [Example 185]
- BRET β-Arrestin2 High AT1R Expression Ymax (%) [1]: 86.7%
- EC50 [1]: 149 nM
- BRET P63 Ymax [2]: 11.7%
- EC50 [2]: 447 nM
- IP-1 Ymax (%) [3]: 13.8%
- EC50 [3]: 204 nM
- EC50 [4]: 139 nM
- DiscoveRx β-arrestin2 Ymax (%) [4]: 48.9%

SMILES: CCc1nc2c(C)cc(C)nc2n1Cc1ncc(-c2cc(-c3cccc(C)c3)ccc2C(=O)O)cn1 [Example 198, 3-(2-((2-ethyl-5,7-dimethyl-3H-imidazo[4,5-b]pyridin-3-yl)methyl)pyrimidin-5-yl)-3′-methylbiphenyl-4-carboxylic acid]
- BRET β-Arrestin2 High AT1R Expression Ymax (%) [1]: 95.8%
- EC50 [1]: 428 nM
- BRET P63 Ymax [2]: 13.4%
- EC50 [2]: 7620 nM
- IP-1 Ymax (%) [3]: 14.6%
- EC50 [3]: 646 nM
- EC50 [4]: 122 nM
- DiscoveRx β-arrestin2 Ymax (%) [4]: 33.0%

SMILES: CCc1nc2c(C)cc(C)nc2n1Cc1cnc(-c2cc(-c3cccc(C)c3)ccc2C(=O)O)cn1 [Example 199, 3-(5-((2-ethyl-5,7-dimethyl-3H-imidazo[4,5-b]pyridin-3-yl)methyl)pyrazin-2-yl)-3′-methylbiphenyl-4-carboxylic acid]
- BRET β-Arrestin2 High AT1R Expression Ymax (%) [1]: 88.5%
- EC50 [1]: 223 nM
- BRET P63 Ymax [2]: 9.6%
- EC50 [2]: 571 nM
- IP-1 Ymax (%) [3]: 9.3%
- EC50 [3]: 713 nM
- EC50 [4]: 273 nM
- DiscoveRx β-arrestin2 Ymax (%) [4]: 34.2%

SMILES: CCc1nc2c(C)cc(C)nc2n1Cc1ccc(-c2cc(-c3cccc(C)c3)ccc2C(=O)O)nn1 [Example 200, 3-(6-((2-ethyl-5,7-dimethyl-3H-imidazo[4,5-b]pyridin-3-yl)methyl)pyridazin-3-yl)-3′-methylbiphenyl-4-carboxylic acid]
- BRET β-Arrestin2 High AT1R Expression Ymax (%) [1]: 54.3%
- EC50 [1]: 1780 nM
- BRET P63 Ymax [2]: 4.3%
- EC50 [2]: 2040 nM
- IP-1 Ymax (%) [3]: 11.4%
- EC50 [3]: 2720 nM
- EC50 [4]: 709 nM
- DiscoveRx β-arrestin2 Ymax (%) [4]: 25.1%

SMILES: CCc1nc2c(C)cc(C)nc2n1Cc1cnc(-c2cc(-c3cccc(C)c3)ccc2C(=O)O)nc1 [Example 202, 3-(5-((2-ethyl-5,7-dimethyl-3H-imidazo[4,5-b]pyridin-3-yl)methyl)pyrimidin-2-yl)-3′-methylbiphenyl-4-carboxylic acid]
- BRET β-Arrestin2 High AT1R Expression Ymax (%) [1]: 52.0%
- EC50 [1]: 1620 nM
- EC50 [2]: > 100000 nM
- IP-1 Ymax (%) [3]: 5.7%
- EC50 [3]: 2940 nM
- EC50 [4]: 1110 nM
- DiscoveRx β-arrestin2 Ymax (%) [4]: 19.4%

SMILES: CCc1nc2c(C)cc(C)nc2n1Cc1ccc(-c2cc(-c3cccc(C)c3)ccc2C(=O)O)nc1 [Example 203, 3-(5-((2-ethyl-5,7-dimethyl-3H-imidazo[4,5-b]pyridin-3-yl)methyl)pyridin-2-yl)-3′-methyl-[1,1′-biphenyl]-4-carboxylic acid]
- BRET β-Arrestin2 High AT1R Expression Ymax (%) [1]: 79.1%
- EC50 [1]: 124 nM
- BRET P63 Ymax [2]: 5.4%
- EC50 [2]: 154 nM
- IP-1 Ymax (%) [3]: 34.9%
- EC50 [3]: 5370 nM
- EC50 [4]: 162 nM
- DiscoveRx β-arrestin2 Ymax (%) [4]: 32.3%

SMILES: CCc1nc2c(C)cc(C)nc2n1Cc1ccc(-c2cc(-n3cc(CCO)nn3)ccc2-c2nnn[nH]2)cc1 [Example 226]
- BRET β-Arrestin2 High AT1R Expression Ymax (%) [1]: 35.0%
- EC50 [1]: 348 nM
- EC50 [2]: > 100000 nM
- IP-1 Ymax (%) [3]: 6.7%
- EC50 [3]: 499 nM
- EC50 [4]: 242 nM
- DiscoveRx β-arrestin2 Ymax (%) [4]: 17.5%

SMILES: CCc1nc2c(C)cc(C)nc2n1Cc1ccc(-c2cc(-n3cc(C4=CCCC4)nn3)ccc2-c2nnn[nH]2)cc1 [Example 229]
- BRET β-Arrestin2 High AT1R Expression Ymax (%) [1]: 82.1%
- EC50 [1]: 25.7 nM
- EC50 [2]: > 100000 nM
- IP-1 Ymax (%) [3]: 6.7%
- EC50 [3]: 195 nM
- EC50 [4]: 39 nM
- DiscoveRx β-arrestin2 Ymax (%) [4]: 24.0%

SMILES: CCc1nc2c(C)cc(C)nc2n1Cc1ccc(-c2cc(-c3cn(Cc4ccccc4)nn3)ccc2-c2nnn[nH]2)cc1 [Example 238]
- BRET β-Arrestin2 High AT1R Expression Ymax (%) [1]: 62.6%
- EC50 [1]: 281 nM
- EC50 [2]: > 100000 nM
- IP-1 Ymax (%) [3]: 9.6%
- EC50 [3]: 1260 nM
- EC50 [4]: 198 nM
- DiscoveRx β-arrestin2 Ymax (%) [4]: 22.4%
